Assay results: patent US9295679B2, “Prodrugs of C-17-heteroaryl steroidal CYP17 inhibitors/antiandrogens: synthesis, in vitro biological activities, pharmacokinetics and antitumor activity” (University of Maryland, Baltimore, priority 2008, dated 2016)
Entries after “also recorded” stand apart in the source; their conditions may differ.

Experiments:
DU-145 = assay: MTT cell viability assay, DU-145; type: cell-based; details: DU-145, MTT, 96 hours exposure
Procedure: (§1) All cell lines were obtained from American Type Culture Collection (Rockville, Md.) and maintained in RPMI 1640 media supplemented with 10% fetal bovine serum and 5% penicillin/streptomycin solution. Cells were grown as a monolayer in a humidified incubator (5% CO2) at 37° C. To determine the effect of the compounds on cell proliferation, cells were plated (2500 cells/well) in 96-well cell culture dishes (Corning, Inc. Corning, N.Y.). After a 24 hr attachment period, media was replaced with fresh media containing compounds (0.01 μM-100 μM) or vehicle (95% ethanol). The cells were then allowed to grow in the presence of the drugs for 96 hours. After 96 hours, relative cell viability was assessed using the MTT reagent (3-(4,5-dimethylthiazol-2-yl)-2,5-diphenyltetrazolium bromide) as described in Patel, et al. 2004^43. Experiments were carried out three times with six replicates per dose per experiment (n=18). Results were plotted using the average of each dose over all three experiments and fitted with a best-fit sigmoidal dose response variable slope curve using GraphPad Prism 4.01 (GraphPad Software, Inc.). […] Combination index (CI) was calculated as previously described^44. CI values less than 1 are considered synergistic.

[1] = Oral bioavailability in rat; details: in vivo
PC-3 = assay: MTT cell viability assay, PC-3; type: cell-based; details: MTT, 96 hours exposure
Procedure: Cells were grown as a monolayer in a humidified incubator (5% CO2) at 37° C. To determine the effect of the compounds on cell proliferation, cells were plated (2500 cells/well) in 96-well cell culture dishes (Corning, Inc. Corning, N.Y.). […] The cells were then allowed to grow in the presence of the drugs for 96 hours. […] Experiments were carried out three times with six replicates per dose per experiment (n=18). […] Combination index (CI) was calculated as previously described^44. CI values less than 1 are considered synergistic.

PC-3 cells [2] = assay: Ca2+ transients in PC-3 cells (Fluo-3AM); type: cell-based; details: 20 μM; for transient rise in [Ca2+]i, mean ΔF/Fo: Fluo-3AM
Procedure: PC-3 Cells were loaded with either fura-2 or fluo-3 indicator by incubation with 2 μM fura-2/AM or 2 μM fluo-3/AM in RPMI 1640 medium containing 10% fetal bovine serum for >60 min at room temperature. During experiments, the coverslips were mounted in a flow chamber and superfused with oxygenated Locke solution containing (in mM): 10 glucose, 136 NaCl, 5.6 KCl, 1.2 NaH2PO4, 14.3 NaHCO3, 1.2 MgCl2, and 2.2 CaCl2, pH 7.4, at room temperature (22-24° C.).
Cells loaded with fura-2 were placed in a perfusion chamber mounted on an inverted microscope (TE200; Nikon, Tokyo, Japan) equipped with a UV-transmitting objective (SuperFluor, 40×, N.A. 1.4, Nikon). Fura-2 was alternately excited by 340 nm and 380 nm light from monochrometers (Deltascan Illumination System, Photonic Technology International (PTI), South Brunswick, N.J.) and fura-2 emission was passed through a 515 nm longpass filter before detection by a cooled CCD camera (Retiga 2000R, Q-Imaging, Burnaby, Canada). For measurement of Ca^2+ transients in individual cells, coverslips with fluo-3 loaded cells were excited by the output of a 100 W mercury arc lamp that passed through a 480 nm bandpass filter (30 nm bandwidth). Fluorescence emission was passed through a 515 nm longpass filter before capture by a cooled CCD camera (Retiga 2000R, Q-Imaging). Image acquisition was performed with QCapture Pro (Q-Imaging) and analysis was performed with ImageJ (U.S. National Institutes of Health, Bethesda, Md., USA).
Fluo-3 Ca^2+ indicator measurements are reported as the fractional change in fluorescence intensity relative to baseline (ΔF/F0), which was determined as follows. Within a temporal sequence of fluorescence images, a region of interest (ROI) was drawn around each cell to be analyzed. The fluorescence signal from each cell was calculated as the pixel-averaged intensity within each ROI. In these experiments, a slight downward drift in baseline was typically observed, which was principally attributable to photo-bleaching of the indicator. […]

[3] = test system: androgen-dependent LAPC4 human prostate tumor xenograft; details: cited from earlier work
LNCaP = assay: MTT cell viability assay, LNCaP; type: cell-based, human; details: 96 hours exposure
Procedure: as §1

[4] = mice, s.c. 50 mg/kg; cited from earlier work
PC-3 cells [5] = assay: Cell cycle analysis by flow cytometry in synchronized PC-3 cells; type: cell-based; details: 20 μM
Procedure: Cells were synchronized in the G1/G0 phase by maintaining them in 0.2% FBS-containing media for 96 hours. After starvation, media was replaced with normal growth media (10% FBS) containing vehicle (95% ethanol) or 20 μM VN/124-1 for 12, 18, and 24 hours. At each timepoint, cells were fixed in 70% ethanol at −20° C. for at least 24 hours. Fixed cells were then incubated with 1 mL propidium iodide (PI) staining buffer (1 mg/ml PI, 0.1% Triton-X, and 10 μg/ml RNase A dissolved in PBS) for 1 hour at room temperature and DNA content was measured by flow cytometry analysis using a FACSort flow cytometer (Becton Dickinson, San Jose, Calif.); 15,000 events were analyzed for each sample. ModFit LT version 3.1 (Verity Software House Ind., ME) was used to analyze cell cycle distribution.

PC-3 cells [6] = assay: Western blot of ERSR related proteins in PC-3 cells; type: cell-based
Procedure: Protein was isolated, subjected to SDS-PAGE, transferred and imaged as previously described^45. All primary antibodies were purchased from Cell Signaling (Danvers, Mass.). Quantitation of relative protein expression was determined via densitometry using the software ImageQuant 5.0 (Molecular Dynamics) with each protein normalized to its respective loading control. Results represent the average of at least three independent experiments, with representative blots shown.

Q: What does the source list for `C[C@]12CC[C@H](O)CC1=CC[C@@H]1[C@@H]2CC[C@]2(C)C(n3cnc4ccccc43)=CC[C@@H]12` [Compound 5, 3β-hydroxy-17-(1H-benzimidazole-1-yl)androsta-5,16-diene]?
A: GI90 (DU-145): 15.95 µM; GI50 (DU-145; Homo sapiens): 7.55 µM; bioavailability [1]: ~10%; GI50 (PC-3; Homo sapiens): 7.82 µM; GI90 (PC-3): 18.62 µM; transient rise in [Ca2+]i, mean ΔF/Fo (PC-3 cells [2]; extracellular calcium present): 0.613; transient rise in [Ca2+]i, mean ΔF/Fo (PC-3 cells [2]; extracellular calcium removed): 0.967; Ca2+ transient after depletion of ER calcium stores (PC-3 cells [2]; pretreatment with SERCA inhibitor CPA): completely abolished; reduction in the mean final tumor volume compared with controls ([3]; 50 mg/kg/twice daily, P=0.00065): 93.8%; effect on growth of LAPC4 tumor xenograft ([3]; Compound 6 at 0.15 mmol/kg twice daily): very effective; also recorded: marked suppression; GI90 (LNCaP): 31.99 µM; GI50 (LNCaP; Homo sapiens): 3.15 µM; detectability in plasma at 8 hours [4]: neither was detectable; peak plasma levels [4]: 16.82 ng/mL; exit from G1 phase of the cell cycle (PC-3 cells [5]): prevent the exit from G1 phase; phosphorylation of eIF2α (PC-3 cells [6]; 20 μM, 6 and 24 hours, PC-3): induced the phosphorylation of eIF2α; cyclin D1 protein (PC-3 cells [6]; PC-3, after 24 hrs): down-regulation of cyclin D1 protein significantly
